Results: the NIST ThermoML archive (doi:10.1021/acs.jced.7b00020)
± gives the expanded uncertainty stated by the source.

Assay: wn = mass fraction of the nth substance listed
Details: 100 kPa, Liquid, Pycnometric method

Row | Structure (SMILES) | mass density (288.15 K, w1 = 0.1686) [kg/m3] | mass density (318.15 K, w1 = 0.2685) [kg/m3] | mass density (288.15 K, w1 = 0.436) [kg/m3] | mass density (318.15 K, w1 = 0.5992) [kg/m3]
1 | O=P([O-])(O)O.[K+] [monopotassium phosphate] + O | 1126.4 ± 2.6 | 1204.6 ± 2.8 |  | 
2 | O=P([O-])(O)O.[Na+] [sodium dihydrogen phosphate] + O |  |  | 1388.4 ± 3.4 | 1573.3 ± 3.8
